Experimental data: patent publication EP0783524B1, “PEPTIDES AND PHARMACEUTICAL COMPOSITIONS COMPRISING THEM” (YEDA RESEARCH AND DEVELOPMENT CO. LTD., priority 1994, dated 2005)

Columns and labels:
NOD mice = settings: results of refs (3) and (4); cited from earlier work
anti-idiotypic T cells = assay: Immunization followed by spleen T cell proliferation assay (anti-idiotypic response), NOD mice; format: in vivo; settings: NOD female mice, 12 weeks old, 100 µg per mouse subcutaneously in IPA; tested 2 or 5 weeks after treatment; C9VDJ peptide 5 µg/ml (Figure 9)
Excerpt: The peptides are useful for the production of a medicine for vaccination against IDDM. • Figure 1. Determination by PCR of TCR, Vβ gene usage in the C9 clone. Lanes 1-19: the 19 different Vβ amplification reactions with the Cβ oligonucleotide primer. Lane s.m.: fx/Hae III size marker. The gel was hybridized with an internal Cβ oligonucleotide probe and therefore the size marker is printed. The two positive bands for Vβ2 and Vβ12 indicate the existence of these segments in the C9 clone. • Figure 2. The presence of sequences homologous to the C9 VDJ rearrangement determined by PCR in different T-cell lines using the specific C9 VDJ oligonucleotide primer. The first four lanes show the results of the NOD lines C9 (lane 1), C7 (2), N4 (3), and an anti-ovalbumin line (4). […] T cell responses to hep60 (idiotype) and to the C9 clone (anti-idiotype) were measured in naive female and male NOD mice. […] The proliferative response was measured'by adding 3H-thymidine to the culture for the last 16 h of a 72 h stimulation. The incorporated 3H-thymidine was measured on a β-counter and the stimulation index (SI) was calculated as cpm incorporation in the presence of antigen/cpm incorporation in the absence of antigen. […]

In the case of “VLGGGCALLRCIPALDSLTPANED (SEQ ID NO:5) [p277]”, the “prevention or reversal of diabetes by vaccination” value (NOD mice) is given as “could prevent (3) or even reverse diabetes” and the “anti-C9 response (proliferation to C9VDJ peptide) after peptide treatment” value (anti-idiotypic T cells) is given as “induces anti-C9 response”.
